In patent US7524885B2, “Compounds that stimulate glucose utilization and methods of use” (The Governors of the University of Alberta, priority 2002, dated 2009) one finds activation data, which are given here for 19 molecules.

Molecules are shown by their SMILES.

One assay deals with isolated working rat heart. Description: Glucose oxidation in isolated perfused working rat heart ([U-14C]glucose, 14CO2 production). Particulars: Table 2A; screening concentration 100 μM; isolated working rat heart; read-out: Glucose Oxidation (% above control). On the procedure:
Rat hearts were cannulated for isolated working heart 60 minute aerobic perfusions as described in J Pharmacol Exp Ther. 1993; 264:135-144, the entire disclosure of which is incorporated herein by reference.
Male Sprague-Dawley rats (0.3-0.35 kg) were anesthetized with pentobarbital sodium (60 mg/kg IP) and hearts were quickly excised, the aorta was cannulated and a retrograde perfusion at 37° C. was initiated at a hydrostatic pressure of 60 mm Hg. Hearts were trimmed of excess tissue, and the pulmonary artery and the opening to the left atrium were then cannulated. After 15 min of Langendorff perfusion, hearts were switched to the working mode by clamping the aortic inflow line from the Langendorff reservoir and opening the left atrial inflow line. The perfusate was delivered from an oxygenator into the left atrium at a constant preload pressure of 11 mm Hg. Perfusate was ejected from spontaneously beating hearts into a compliance chamber (containing 1 ml of air) and into the aortic outflow line. The afterload was set at a hydrostatic pressure of 80 mm Hg. All working hearts were perfused with Krebs'-Henseleit solution containing calcium 2.5 mmol/L, glucose 5.5 mmol/L, 3% bovine serum albumin (fatty acid free, initial fractionation by heat shock, Sigma), and with 1.2 mmol/L palmitate. Palmitate was bound to the albumin as described in J Bio Chem. 1992; 267:3825-3831, the entire disclosure of which is incorporated herein by reference.
The perfusate was recirculated, and pH was adjusted to 7.4 by bubbling with a mixture containing 95% O2 and 5% CO2.
Spontaneously beating hearts were used in all perfusions. Heart rate and aortic pressure were measured with a Biopac Systems Inc. blood pressure transducer connected to the aortic outflow line. Cardiac output and aortic flow were measured with Transonic T206 ultrasonic flow probes in the preload and afterload lines, respectively. Coronary flow was calculated as the difference between cardiac output and aortic flow. Cardiac work was calculated as the product of systolic pressure and cardiac output.
Measurement of Glucose Oxidation: Glucose oxidation was measured simultaneously by perfusing hearts with [U-^14C] glucose according to the procedures discussed in Saddik M, et al., J Bio Chem. 1992; 267:3825-3831. The entire disclosure of this reference is incorporated herein by reference. The total myocardial ^14CO2 production was determined at 10-min intervals from the 60-min aerobic period. Glucose oxidation rates were determined by quantitative measurement of ^14CO2 production as described in Barbour RL, et al., Biochemistry. 1984; […]. The entire disclosure of this reference is incorporated herein by reference. ^14CO2 production for the control group were compared with the ^14CO2 production for the group treated with cyclopropanecarboxylic acid, 2-[2-(2-methoxy-ethoxy)-ethoxy]-ethyl ester. Results are shown on FIG. 1 and TABLE 2A.
The procedure of Example A for was followed except that cyclobutanecarboxylic acid, 2-[2-(2-methoxy-ethoxy)-ethoxy]-ethyl ester in 1 μM, 10 μM, 100 μM and 1000 μM amounts was added to the buffer in place of the cyclopropanecarboxylic acid, 2-[2-(2-methoxy-ethoxy)-ethoxy]-ethyl ester. The results are illustrated in FIG. 2 and TABLE 2A.
The procedure of Example A was followed except that cyclopropanecarboxylic acid, 2-isopropoxy-ethyl ester in 1 μM, 10 μM, 100 μM and 1000 μM amounts was added to the buffer in place of the cyclopropanecarboxylic acid, 2-[2-(2-methoxy-ethoxy)-ethoxy]-ethyl ester. The results are illustrated in FIG. 3 and TABLE 2A.
The procedure of Example A was followed except that various cyclobutanecarboxylic acid derivatives, cyclopropanecarboxylic acid derivatives and cyclobutanecarboxylic acid in the amounts of 100 μM or 1000 μM was added to the buffer in place of the cyclopropanecarboxylic acid, 2-[2-(2-methoxy-ethoxy)-ethoxy]-ethyl ester.
As for `CCOCCOC(=O)C1CC1` [Compound 15MM068, Cyclopropanecarboxylic acid 2-ethoxy-ethyl ester], the activation at 100 µM is 416%.

Turning to `CC(C)OCCOC(=O)[C@@H]1C[C@H]1c1ccccc1` (racemic) [Compound 25MM078, trans-2-Phenyl-cyclopropanecarboxylic acid 2-isopropoxy-ethyl ester], the activation at 100 µM turned out to be 200%.

Take `CC(C)OCCOC(=O)C1CC1` [Compound 17MM070, Cyclopropanecarboxylic acid 2-isopropoxy-ethyl ester]: the activation at 100 µM is 208%.

Consider `O=C(OCCOCCOCc1ccccc1)C1CCC1` [Compound 6MM059, Cyclobutanecarboxylic acid 2-(2-benzyloxy-ethoxy)-ethyl ester], for which the activation at 100 µM is 68%.

Consider `COCCOCCOCCOC(=O)C1CC1` [Compound 1MM054, Cyclopropanecarboxylic acid 2-[2-(2-methoxy-ethoxy)-ethoxy]-ethyl ester], for which the activation at 100 µM stood at 102%.

Consider `CCOCCOC(=O)C1CCC1` [Compound 16MM069, Cyclobutanecarboxylic acid 2-ethoxy-ethyl ester], for which the activation at 100 µM was 162%.

As for `O=C(OCCOCCOC(=O)C1CC1)C1CC1` [Compound 19MM072, Cyclopropanecarboxylic acid, 2-(2-cyclopropanecarbonyloxy-ethoxy)-ethyl ester], the activation at 100 µM was determined as 97%.

For `O=C(OCCN(CCOC(=O)C1CC1)CCN(CCOC(=O)C1CC1)CCOC(=O)C1CC1)C1CC1` [Compound 23MM076, Cyclopropanecarboxylic acid 2-[{2-[bis(2-cyclopropanecarbonyloxy-ethyl)-amino]-ethyl}-(2-cyclopropanecarbonyloxy-ethyl)-amino] ethyl ester], the activation at 100 µM amounted to 274%.

`O=C(OCCOCCOCc1ccccc1)C1CC1` [Compound 4MM057, Cyclopropanecarboxylic acid 2-(2-benzyloxy-ethoxy)-ethyl ester]: the activation at 100 µM stood at 104%.

The assay is the same for the next values; noted with them: Table 2A; screening concentration 1000 μM; isolated working rat heart; read-out: Glucose Oxidation (% above control).
As to `CC(NC(=O)C1CC1)C(=O)O` (stereo not shown) [Compound 5MM058, 2-(Cyclopropanecarbonyl-amino)-propionic acid], the activation at 1000 µM was 40%.

The assay is the same for the next values; noted with them: Table 2B; screening concentration 100 μM; isolated working rat heart; read-out: Glucose Oxidation (% above control).
On to `CCOCCOC(=O)C1(c2ccc(OC)cc2)CC1` [Compound 43MM096, 1-(4-methoxy-phenyl)-cyclopropanecarboxylic acid 2-ethoxy-ethyl ester], for which the activation at 100 µM was 93%.

Regarding `O=C(OCCOC(=O)C1CC1)C1CC1` [Compound 45MM098, Cyclopropanecarboxylic acid 2-cyclopropanecarbonyloxy-ethyl ester], the activation at 100 µM stood at 358%.

For `CCOCCOC(=O)C1(C)CC1(Cl)Cl` (stereo not shown) [Compound 33MM086, 2,2-Dichloro-1-methyl-cyclopropanecarboxylic acid 2-ethoxy-ethyl ester], the activation at 100 µM was 117%.

In the case of `CCOCCOC(=O)C1C(C)(C)C1(C)C` [Compound 29MM082, 2,2,3,3-Tetramethyl-cyclopropanecarboxylic acid, 2-Ethoxy-ethyl ester], the activation at 100 µM was determined as 110%.

With `CCOCCOC(=O)C1CC1C` (stereo not drawn) [Compound 32MM085, Trans-2-methyl-cyclopropanecarboylic acid 2-ethoxy-ethyl ester], the activation at 100 µM came out at 150%.

Consider `O=C(OCCOC(=O)C1(c2ccccc2)CC1)C1(c2ccccc2)CC1` [Compound 46MM099, 1-(1-Phenyl-1-cyclopropanecarboxylic acid)-2-(1-phenyl-1-cyclopropanecarbonyloxy)-ethyl ester], for which the activation at 100 µM was 93%.

In the case of `O=C(OCCN1CCOCC1)C1CC1` [Compound 39MM092, Cyclopropanecarboxylic acid 2-morpholin-4-yl-ethyl ester], the activation at 100 µM came out at 233%.

As for `O=C(SCc1ccco1)C1CC1` [Compound 42MM095, Cyclopropanecarbothioic acid S-furan-2-yl methyl ester], the activation at 100 µM was determined as 314%.

With `CCOCCOC(=O)C1(C(=O)OCCOCC)CC1` [Compound 31MM084, Cyclopropane-1,1-dicarboylic acid bis-(2-ethoxy-ethyl) ester], the activation at 100 µM came out at 197%.
